Measured values from patent publication US8114903B2, “Cytokine modulators using cyclic glycerides of essential polyunsaturated fatty acids” (BTG International Limited, priority 2005, dated 2012).
Read-outs that look alike come from different tables or passages of the source.

Columns and labels:
[1] = Storage stability in air at room temperature; assay type: physicochemical; settings: similar to GLA, best stored long term in a cool place under nitrogen
Experimental: For the purposes of this exemplification, the synthesis of this ester was carried out by acylation of the commercially available glycerol formal mixture using γ-linolenoyl chloride. By this method a mixture of two products is formed and these were separable by column chromatography. The undesired by-product is eluted off the column first; further elution gives the desired acetal-ester.

TGF-β1 [2] = assay: TGF-β1 production by spleen mononuclear cells of C57/BL mice dosed orally with 2 GLA MG formal (ELISA); assay type: in vivo; settings: for Spleen mononuclear cell TGFβ production: Con A and unstimulated data combined, n=9/group, mean ± SEM
Experimental: C57/BL mice were dosed orally with 2 GLA MG formal at two doses of 50 and 150 ul for eight days. The compound was supplied in 8 separate tubes to be stored at 4° C. prior to dosing but warmed to 25° C. before use.
Data were therefore combined for the purposes of statistical analysis (n=9/group). Data were analysed using Graphpad Instat.

[3] = mouse, in vivo
TGF-β1 [4] = settings: monoglyceride 50 μg
Experimental: Solublization of Sn-2 monoglyceride was performed using ethyl alcohol or DMSO for in vitro work on human peripheral blood mononuclear cells (PBMCs). […] SJL mice were fed sn-2 GLA of Example 1 at three doses (50, 125 and 250 μl) for seven days by gavage. […] After seven days animals were killed and the brain, liver and spleen were removed the liver and brain frozen at −70° C. and mononuclear cells were isolated from spleens by sieving and density centrifugation on Lymphoprep (Sigma Chemical Co) and cultured at 37° C. in 5% CO2 atmosphere in 5 ml culture tubesat a cell density of 1×10^6 cells/ml in RPMI 1640 medium in 5% foetal calf serum (FCS). Cells were cultured with and without 1 μg/ml or […] concanavalin A (Con A) for approximately 20 hours and the supernatants removed and stored at −70° C. until required. Mouse […] was measured in supernatants using a commercially available ELISA (Promega, Madison Wis.).

| Regurgitation after gavage [3] | Structure (SMILES) | Stability in air [1] | Spleen mononuclear cell TGFβ production (TGF-β1 [2]; 50 ul orally for eight days) [pg/mL] | Increase of spleen mononuclear cell TGFβ production vs controls (TGF-β1 [2]; 150 ul orally for eight days) | Spleen mononuclear cell TGFβ production (TGF-β1 [2]; 150 ul orally for eight days) [pg/mL] | Change % of TGF-β1 production vs control (TGF-β1 [4]; Con A 0 μg/ml) [%] | TGF-β1 production from spleen PBMCs, unstimulated (TGF-β1 [4]; Con A 0 μg/ml, fed by gavage for seven days, cells cultured about 20 hours) [pg/mL] | Change % of TGF-β1 production vs control (TGF-β1 [4]; Con A 1 μg/ml) [%] | TGF-β1 production from spleen PBMCs, stimulated (Con A) (TGF-β1 [4]; Con A 1 μg/ml, fed by gavage for seven days, cells cultured about 20 hours) [pg/mL] | Change % of TGF-β1 production vs control (TGF-β1 [4]; Con A 25 μg/ml) [%] | TGF-β1 production from spleen PBMCs, stimulated (Con A) (TGF-β1 [4]; Con A 25 μg/ml, fed by gavage for seven days, cells cultured about 20 hours) [pg/mL] |
| --- | --- | --- | --- | --- | --- | --- | --- | --- | --- | --- | --- |
|  | CCCCC/C=C\C/C=C\C/C=C\CCCCC(=O)OC1COCOC1 [GLA 2-MG-F, 5-(γ-linolenoyloxy)-1,3-dioxan] | stable in air at room temperature for short periods (days) | 90.9 ± 5.2 | P < 0.0001 ↑ 103% | 158.6 ± 7.5 |  |  |  |  |  |  |
| prone to regurgitation | CCCCC/C=C\C/C=C\C/C=C\CCCCC(=O)OC(CO)CO [γ-linolenic acid monoglyceride] |  |  |  |  | 80 | 377 | 79 | 409 | 42 | 480 |
